Results reported in patent US11740235B2, “Model-membrane-based lipid transfer assays and methods” (Regents of the University of Minnesota, priority 2019, dated 2023).
Entries after “also recorded” stand apart in the source; their conditions may differ.

Key:
Type in all cases: biochemical
[1] = tested on: GFP-GLTP; assay: Bicelle-dilution FRET lipid transfer assay with HeLa cell lysate; conditions: lysate of transfected HeLa cells, 10 μl aliquots; donor q=0.5, acceptor q=0.5
Experimental: (§1) FIG. 14. Bicelle-dilution-model-membrane-assay detection of transfer activity by GLTP and CPTP expressed in HeLa cells after transient transfection with GFP-GLTP or GFP-CPTP. Cells were disrupted by brief probe sonication (30 sec×2) on ice. Cell supernatants were recovered by benchtop centrifugation (5 min @ 12,000 rpm) at 4° C. and then 10 μl aliquots were assayed for LTP activity. (Donor: q=0.5; Acceptor: q=0.5).
(§2) HeLa cells were plated on 100-mm dishes and transfected with different vectors using Lipofectamine 2000 (Invitrogen, Carlsbad, Calif.). At 24 hours post-transfection, cells were harvested by trypsinization, washed with phosphate-buffered saline (PBS) by benchtop centrifugation and then suspended in PBS buffer (200 μl). Disruption of the HeLa cells was accomplished by brief probe sonication (2×30 seconds) on ice. Cell supernatants were recovered by benchtop centrifugation (5 minutes at 12,000 rpm) at 4° C. and 10 μl aliquots were assayed for SLTP activity using donor bicelle-dilution vesicles containing either Me4-BODIPY-GalCer or Me4-BODIPY-C1P along with C18-DiI.

[2] = tested on: GFP-CPTP; assay: as above; conditions: lysate of transfected HeLa cells, 10 μl aliquots; donor q=0.5, acceptor q=0.5
Experimental: as §1, §2

[3] = target: T1, ACD11 (Arabidopsis thaliana, UniProt O64587); assay: Bicelle-dilution FRET lipid transfer assay, lipid specificity; conditions: donor q=0.5, acceptor q=0.5
T1 construct: 6xHis-SUMO (N, cleaved yes); made in house; host or cells: E. coli BL21 (DE3)-pLysS or -Star
T1 sequence (O64587 1-206): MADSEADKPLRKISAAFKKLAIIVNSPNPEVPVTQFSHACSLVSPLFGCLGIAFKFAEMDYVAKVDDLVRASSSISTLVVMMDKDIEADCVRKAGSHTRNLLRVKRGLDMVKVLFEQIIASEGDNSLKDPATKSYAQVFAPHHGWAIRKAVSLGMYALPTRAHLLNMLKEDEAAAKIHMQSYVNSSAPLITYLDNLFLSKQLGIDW
Experimental: (§3) For experiments requiring ˜10 kinetic assays, donor stock lipid mixtures (0.5 q-value) were prepared by combining POPC (0.39 μmol), BODIPY-15-SL (0.004 μmol), DiI-C18 (0.006 μmol) and DHPC (0.8 μmol) from stock solvent solutions of hexane/ethanol (9:1) or chloroform/methanol (8:2). Acceptor stock lipid mixtures (0.5 q-value) were prepared by combining POPC (2 μmol) and DHPC (4 μmol) from stock solvent solutions. Total solvent volume in the clean glass vials containing inverted conical bottoms was approximately 100 μl. For other q-value stocks, the amount of DHPC was adjusted accordingly. Dry films of the lipid mixtures were obtained using a stream of nitrogen to evaporate all solvent at room temperature. The dry lipid films were hydrated by adding 200 μl of assay buffer (10 mM potassium phosphate, pH 6.6, 150 mM NaCl, and 0.2% EDTA) and then vortexed vigorously for at least five minutes to achieve optical clarity. For stocks with q-values of 1 or 2, lipid mixtures were not only vortexed vigorously but also sonicated briefly (2 to 3 minutes). All stocks were equilibrated overnight at room temperature prior to use in the lipid transfer assay regardless of q-value [q-value for donors=(POPC+BODIPY-15-SL+DiIC18)/DHPC; q-value for acceptors=POPC/DHPC]. Immediately prior to use in the FRET lipid transfer assay, donor and acceptor stocks were centrifuged for 10 minutes at 13,000 rpm. The FRET lipid transfer assay as performed as follows: donor stock (20 μl) was diluted into a stirred temperature-controlled cuvette containing assay buffer an equilibrated for two minutes to ensure a stable signal response. Next, acceptor stock (20 μl was diluted into the stirred cuvette and equilibrated for four minutes prior to initiating sphingolipid transfer by adding lipid transfer protein (2 μg) to a final cuvette volume of 2.5 ml. The total lipid concentration was 288 μM for assays using a 5:1 acceptor-to-donor ratio and was higher when more acceptors were added to increase transfer equilibrium from the donors.
(§4) Real-time intermembrane transfer rates of fluorescent sphingolipids were obtained by Förster resonance energy transfer (FRET) using a SPEX FluoroLog3 spectrofluorometer (Horiba Scientific, Ltd., Kyoto, Japan), with excitation and emission band passes of 2 nm and a stirred (˜100 rpm), temperature-controlled (25±0.1° C.) sample cuvette holder. All fluorescent lipids were localized initially to the SL-source (donor) vesicles (formed by rapid ethanol injection or probe sonication) or SL-source (donor) b-d model membranes. Minimal BODIPY-lipid emission occurred upon excitation (460 nm) due to resonance energy transfer to nearby C18-DiI. Either sonicated POPC vesicles or b-d POPC/DHPC model membranes served as receiver (acceptor) model membranes, which produced minimal change in fluorescence signal when added in excess (Mattjus et al., 1999, Anal. Biochem. 268:297-304). The final receiver (acceptor) vesicle concentration in the FRET lipid transfer assay was ˜240 μM to 1440 μM, which was five-fold to 30-fold higher than the SL-source (donor) vesicle concentration. Protein addition triggered a sudden, hyperbolic increase in BODIPY emission intensity (503 nm) as FRET decreased due to protein transport of fluorescent glycolipids from SL-source (donor) vesicles to receiver (acceptor) vesicles, creating separation from nontransferable C18-DiI lipid, as the protein delivers the BODIPY-SL to the excess POPC receiver vesicles or POPC/DHPC bicelles. Addition of Tween-20 detergent after extended incubation provided a measure of maximum intensity achievable by “infinite” fluorophore separation.

[4] = target: T2, GLTP (Homo sapiens, UniProt Q9NZD2); assay: as above; conditions: for transfer by GLTP between bd donors and acceptors: donor q=0.5, acceptor q=0.5
T2 construct: 6xHis-SUMO (N, cleaved yes); made in house; host or cells: E. coli BL21 (DE3)-pLysS or -Star
T2 sequence (Q9NZD2 1-209): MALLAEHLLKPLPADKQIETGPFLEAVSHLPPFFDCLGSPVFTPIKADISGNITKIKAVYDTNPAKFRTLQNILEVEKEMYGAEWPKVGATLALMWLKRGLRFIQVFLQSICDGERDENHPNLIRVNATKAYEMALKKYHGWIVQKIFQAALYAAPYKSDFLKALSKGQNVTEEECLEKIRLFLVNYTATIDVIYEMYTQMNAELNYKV
Experimental: as §3, §4

[5] = target: T1, ACD11; assay: Bicelle-dilution FRET assay, competitive inhibition of BODIPY-C1P transfer; conditions: increasing concentrations in donor bd-vesicles; donor q=0.5, acceptor q=0.5
Source text: The C1P derivative, diethyl-C1P, can inhibit cytosolic phospholipase A2α (cPLA2α) activity when the C1P acyl chain is short—e.g., C2-diethyl-C1P. The inhibition of cPLA2α by C2-diethyl-C1P presumably occurs via interaction with the cPLA2α C2-domain, which contains a C1P binding site that activates cPLA2α by enhancing translocation to membranes. To date, no inhibitors of C1P transfer proteins (e.g., CPTP and ACD11) have been reported. The bicelle-dilution FRET assay was used to test whether C2-diethyl-C1P can inhibit the plant CPTP ortholog, ACD11. […]
(§5) Real-time intermembrane transfer rates of fluorescent sphingolipids were obtained by Förster resonance energy transfer (FRET) using a SPEX FluoroLog3 spectrofluorometer (Horiba Scientific, Ltd., Kyoto, Japan), with excitation and emission band passes of 2 nm and a stirred (˜100 rpm), temperature-controlled (25±0.1° C.) sample cuvette holder. […] Either sonicated POPC vesicles or b-d POPC/DHPC model membranes served as receiver (acceptor) model membranes, which produced minimal change in fluorescence signal when added in excess (Mattjus et al., 1999, Anal. Biochem. 268:297-304). […]

[6] = target: T2, GLTP; assay: FRET lipid transfer control with DHPC in assay buffer, ethanol-injection donors and sonicated acceptors; conditions: DHPC 352 μM and 672 μM in assay buffer; ethanol-injection donors, sonicated acceptors (5×)
Experimental: Small phosphatidylcholine vesicles (25-40 nm diameters) have typically been used as model membranes to assess lipid inter-bilayer transfer because of the faster transfer rates compared to those obtained using larger vesicles. Different donor and acceptor combinations were tested involving either small vesicles and/or 0.5 q-value bicelle dilution vesicles (bd-vesicles) to determine which combination produced the fastest intermembrane transfer rates. […] When the donor vesicles were produced by sonication, sphingolipid transfer rates were markedly slowed regardless of whether the acceptors were bd-vesicles or sonicated vesicles. […] Thus, similar high assay sensitivity can be achieved using the bicelle-to-bicelle transfer conditions as for vesicle-to-vesicle transfer conditions. […]
as §5

Chain of GFP-CPTP (Q5TA50 whole entry): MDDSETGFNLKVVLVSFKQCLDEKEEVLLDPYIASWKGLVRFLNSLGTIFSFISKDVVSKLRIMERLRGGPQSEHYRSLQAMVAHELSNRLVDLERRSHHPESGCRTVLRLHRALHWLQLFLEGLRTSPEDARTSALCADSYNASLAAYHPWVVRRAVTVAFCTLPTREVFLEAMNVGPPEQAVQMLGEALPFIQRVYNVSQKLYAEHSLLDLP

Me4-BODIPY-15-ceramide-1-phosphate [Me4-BODIPY C1P]
bd-vesicle-to-bd-vesicle transfer by GFP-GLTP [1]: not
bd-vesicle-to-bd-vesicle transfer by GFP-CPTP [2]: transfer
transfer by ACD11 between bd donors and acceptors [3]: specifically transfers
transfer by ACD11 between bd donors and acceptors ([3]; listed as BODIPY-C1P): transfer
transfer by GLTP between bd donors and acceptors [4]: not

ceramide-1-phosphate [C1P]
competition effect on ACD11-mediated transfer rates of Me4-BODIPY C1P [5]: Slowing of ACD11 transfer of BODIPY-C1P; also recorded: slow the inter-bicelles transfer rates

CCCCCC(=O)OC[C@H](COP(=O)([O-])OCC[N+](C)(C)C)OC(=O)CCCCC [DHPC, 1,2-hexanoyl-sn-glycero-3-phosphocholine]
effect on GLTP transfer rate of Me4-BODIPY-GalCer [6]: Lack of significant effect; also recorded: Minimal affect

Me4-BODIPY-15-galactosylceramide [Me4-BODIPY GalCer]
bd-vesicle-to-bd-vesicle transfer by GFP-GLTP [1]: transfer
transfer by ACD11 between bd donors and acceptors [3]: not
transfer equilibrium by GLTP ([4]; bicelle-dilution vesicles, 100% estimated by Tween-20 solubilization): ~70%
transfer by GLTP between bd donors and acceptors [4]: is detected
transfer by GLTP between bd donors and acceptors ([4]; listed as BODIPY-GalCer): transfer
